Data: ChEMBL document CHEMBL1201862, “PubChem BioAssay data set” (2004)
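Growth conditions: 96-well plates. Treatment: test compound, 48 hours, 5 concentrations. Analysis: linear interpolation between bracketing concentrations; unreached endpoints set to highest concentration. GI50 marks 50% less growth.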 Calls of active or inactive are those of the source. Rule as the data show it: active = GI50 up to about 1.1 µM and inactive = higher.

Tests used:
Test in all cases: growth of human tumour cells (NCI), 48 h
[1] = system: KM12
[2] = system: OVCAR-8
[3] = system: IGROV-1
[4] = system: SNB-19
[5] = system: HL-60
[6] = system: M14
[7] = system: OVCAR-4
[8] = system: CCRF-CEM
[9] = system: T47D
[10] = system: SK-MEL-2
[11] = system: RPMI-8226
[12] = system: UACC-62
[13] = system: NCI/ADR-RES
[14] = system: SF-539
[15] = system: SR
[16] = system: K562
[17] = system: TK-10
[18] = system: MDA-N
[19] = system: DU-145

COC1=CC(=O)C(C2CC(=O)c3c(O)cc(O)cc3O2)=CC1=O (stereo not drawn)
GI50 [1]: 17.3 µM (inactive)
GI50 [2]: 25.9 µM (inactive)
GI50 [3]: 19.1 µM (inactive)
GI50 [4]: 25 µM (inactive)
GI50 [5]: 2 µM (inactive)
GI50 [6]: 17.7 µM (inactive)
GI50 [7]: 17.6 µM (inactive)
GI50 [8]: 0.658 µM (active)
GI50 [9]: 14.4 µM (inactive)
GI50 [10]: 17.4 µM (inactive)
GI50 [11]: 10.9 µM (inactive)
GI50 [12]: 16.4 µM (inactive)
GI50 [13]: 21.7 µM (inactive)
GI50 [14]: 20.7 µM (inactive)
GI50 [15]: 5.74 µM (inactive)
GI50 [16]: 5.86 µM (inactive)
GI50 [17]: 16.9 µM (inactive)
GI50 [18]: 15.6 µM (inactive)
GI50 [19]: 19 µM (inactive)

CCOC(=O)C1(C(=O)OCC)CC(=O)[C@@]2(C1)OCC[C@H]1OC(=O)C[C@H]12
GI50 [1]: > 100 µM (inactive)
GI50 [2]: > 100 µM (inactive)
GI50 [3]: > 100 µM (inactive)
GI50 [4]: > 100 µM (inactive)
GI50 [5]: > 100 µM (inactive)
GI50 [6]: > 100 µM (inactive)
GI50 [7]: > 100 µM (inactive)
GI50 [8]: > 100 µM (inactive)
GI50 [9]: > 100 µM (inactive)
GI50 [10]: > 100 µM (inactive)
GI50 [11]: > 100 µM (inactive)
GI50 [12]: > 100 µM (inactive)
GI50 [13]: > 100 µM (inactive)
GI50 [14]: > 100 µM (inactive)
GI50 [15]: > 100 µM (inactive)
GI50 [17]: > 100 µM (inactive)
GI50 [18]: > 100 µM (inactive)
GI50 [19]: > 100 µM (inactive)

CN(Cc1c2ccccc2cc2ccccc12)S(=O)(=O)c1ccc(-c2c3nc(c(-c4ccc(S(=O)(=O)N(C)Cc5c6ccccc6cc6ccccc56)cc4)c4ccc([nH]4)c(-c4ccc(S(=O)(=O)N(C)Cc5c6ccccc6cc6ccccc56)cc4)c4nc(c(-c5ccc(S(=O)(=O)N(C)Cc6c7ccccc7cc7ccccc67)cc5)c5ccc2[nH]5)C=C4)C=C3)cc1
GI50 [1]: > 100 µM (inactive)
GI50 [2]: > 100 µM (inactive)
GI50 [3]: > 100 µM (inactive)
GI50 [4]: 44 µM (inactive)
GI50 [5]: > 100 µM (inactive)
GI50 [6]: > 100 µM (inactive)
GI50 [7]: > 100 µM (inactive)
GI50 [8]: > 100 µM (inactive)
GI50 [9]: > 100 µM (inactive)
GI50 [10]: > 100 µM (inactive)
GI50 [11]: > 100 µM (inactive)
GI50 [12]: > 100 µM (inactive)
GI50 [13]: > 100 µM (inactive)
GI50 [14]: 99.1 µM (inactive)
GI50 [15]: > 100 µM (inactive)
GI50 [16]: > 100 µM (inactive)
GI50 [17]: > 100 µM (inactive)
GI50 [18]: > 100 µM (inactive)
GI50 [19]: > 100 µM (inactive)

Cn1cc(S(=O)(=O)NC(=O)Nc2ccc(Cl)cc2)c(=O)c2ccc(F)cc21
GI50 [1]: 47.6 µM (inactive)
GI50 [2]: > 100 µM (inactive)
GI50 [3]: > 100 µM (inactive)
GI50 [4]: > 100 µM (inactive)
GI50 [5]: > 100 µM (inactive)
GI50 [7]: > 100 µM (inactive)
GI50 [8]: > 100 µM (inactive)
GI50 [9]: > 100 µM (inactive)
GI50 [10]: > 100 µM (inactive)
GI50 [11]: > 100 µM (inactive)
GI50 [12]: 3.01 µM (inactive)
GI50 [13]: > 100 µM (inactive)
GI50 [14]: > 100 µM (inactive)
GI50 [15]: > 100 µM (inactive)
GI50 [16]: > 100 µM (inactive)
GI50 [17]: > 100 µM (inactive)
GI50 [18]: 64.3 µM (inactive)
GI50 [19]: > 100 µM (inactive)

CN(O)C(=O)/C=C/c1ccc(OCc2cccc(Cl)c2)cc1
GI50 [1]: 17.7 µM (inactive)
GI50 [2]: 16.3 µM (inactive)
GI50 [3]: 17.3 µM (inactive)
GI50 [4]: 42.5 µM (inactive)
GI50 [5]: 18 µM (inactive)
GI50 [6]: 28 µM (inactive)
GI50 [7]: 19.6 µM (inactive)
GI50 [8]: 8.26 µM (inactive)
GI50 [9]: 20.1 µM (inactive)
GI50 [10]: 23.8 µM (inactive)
GI50 [11]: 27.5 µM (inactive)
GI50 [12]: 15 µM (inactive)
GI50 [13]: 19.7 µM (inactive)
GI50 [14]: 29.2 µM (inactive)
GI50 [15]: 7.06 µM (inactive)
GI50 [16]: 36.1 µM (inactive)
GI50 [17]: 48.6 µM (inactive)
GI50 [18]: 43.1 µM (inactive)
GI50 [19]: 20.8 µM (inactive)
